Reference: PubChem BioAssay AID248 (DTP/NCI, 2004)
Values joined by “and” are separate entries in the source; they are usually repeats but may differ in a detail not shown here. Identical values can stand only once. Toxic doses and inconclusive results are not listed. Cut-off read from the data, not from the text of the source: active = T/C of 150% or more; inactive = T/C below 125%.

System: L1210 leukemia ip in BDF1 mice, survival T/C
Test: NCI In Vivo Anticancer Drug Screen. Data for tumor model L1210 Leukemia (intraperitoneal) in B6D2F1 (BDF1) mice
Details: endpoint: mean survival time, higher = longer survival
How it was run: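 Read-out is survival time, reported as the treated-group measurement over the vehicle-control measurement.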

[1] = dose: 50.0 mg/kg/injection, schedule: Q04DX003 (ip), vehicle: Klucel (hydroxypropylcellulose) (HPC)
[2] = dose: 100.0 mg/kg/injection, schedule: Q01DX009 (ip), vehicle: Klucel (hydroxypropylcellulose) (HPC)
[3] = dose: 100.0 mg/kg/injection, schedule: Q01DX009 (ip), vehicle: saline with Tween-80
[4] = dose: 100.0 mg/kg/injection, schedule: Q04DX003 (ip), vehicle: Klucel (hydroxypropylcellulose) (HPC)
[5] = dose: 200.0 mg/kg/injection, schedule: Q04DX003 (ip), vehicle: Klucel (hydroxypropylcellulose) (HPC)
[6] = dose: 400.0 mg/kg/injection, schedule: Q04DX003 (ip), vehicle: Klucel (hydroxypropylcellulose) (HPC)
[7] = dose: 100.0 mg/kg/injection, schedule: Q01DX001 (ip), vehicle: carboxymethylcellulose (CMC)
[8] = dose: 200.0 mg/kg/injection, schedule: Q01DX001 (ip), vehicle: carboxymethylcellulose (CMC)
[9] = dose: 400.0 mg/kg/injection, schedule: Q01DX001 (ip), vehicle: carboxymethylcellulose (CMC)
[10] = dose: 100.0 mg/kg/injection, schedule: Q04DX003 (ip), vehicle: saline with Tween-80
[11] = dose: 100.0 mg/kg/injection, schedule: Q01DX001 (ip), vehicle: saline
[12] = dose: 200.0 mg/kg/injection, schedule: Q01DX001 (ip), vehicle: saline
[13] = dose: 400.0 mg/kg/injection, schedule: Q01DX001 (ip), vehicle: saline
[14] = dose: 200.0 mg/kg/injection, schedule: Q01DX009 (ip), vehicle: Klucel (hydroxypropylcellulose) (HPC)
[15] = dose: 400.0 mg/kg/injection, schedule: Q01DX009 (ip), vehicle: Klucel (hydroxypropylcellulose) (HPC)
[16] = dose: 200.0 mg/kg/injection, schedule: Q04DX003 (ip), vehicle: saline with Tween-80
[17] = dose: 400.0 mg/kg/injection, schedule: Q04DX003 (ip), vehicle: saline with Tween-80
[18] = dose: 25.0 mg/kg/injection, schedule: Q01DX009 (ip), vehicle: Klucel (hydroxypropylcellulose) (HPC)
[19] = dose: 50.0 mg/kg/injection, schedule: Q01DX009 (ip), vehicle: Klucel (hydroxypropylcellulose) (HPC)
[20] = dose: 100.0 mg/kg/injection, schedule: Q04DX003 (ip), vehicle: saline
[21] = dose: 200.0 mg/kg/injection, schedule: Q04DX003 (ip), vehicle: saline
[22] = dose: 400.0 mg/kg/injection, schedule: Q04DX003 (ip), vehicle: saline
[23] = dose: 200.0 mg/kg/injection, schedule: Q01DX009 (ip), vehicle: saline with Tween-80
[24] = dose: 400.0 mg/kg/injection, schedule: Q01DX009 (ip), vehicle: saline with Tween-80

Measured: T/C

O=c1[nH][nH]c(=O)c2c(C3OC(CO)C(O)C3O)[nH]nc12 (configuration not stated)
inactive: dose: 100.0 mg/kg/injection, schedule: Q01DX005 (ip), vehicle: saline 90 % of control | dose: 200.0 mg/kg/injection, schedule: Q01DX005 (ip), vehicle: saline 97 % of control

CN(C)N=Nc1ccccc1Cl
inactive: dose: 25.0 mg/kg/injection, schedule: Q01DX009 (ip), vehicle: saline with Tween-80 106 % of control | dose: 50.0 mg/kg/injection, schedule: Q01DX009 (ip), vehicle: saline with Tween-80 120 % of control | [1] 97 % of control | [2] 95 % of control | [3] 123 % of control | [4] 102 % of control and 103 % of control | [5] 103 % of control and 111 % of control | [6] 113 % of control

CCSC(SCC)C(OC(=O)c1ccccc1)C(OC(=O)c1ccccc1)C(COC(=O)c1ccccc1)OC(=O)c1ccccc1 (configuration not stated)
inactive: [7] 102 % of control | [8] 102 % of control | [9] 96 % of control

CCOC(=O)c1ccc[n+](Cc2ccccc2)c1
inactive: dose: 75.0 mg/kg/injection, schedule: Q01DX001 (ip), vehicle: saline 101 % of control | dose: 150.0 mg/kg/injection, schedule: Q01DX001 (ip), vehicle: saline 106 % of control | dose: 300.0 mg/kg/injection, schedule: Q01DX001 (ip), vehicle: saline 98 % of control

CC(=O)C(C)(O)C(C)(C)C (configuration not stated)
inactive: dose: 100.0 mg/kg/injection, schedule: Q01DX009 (ip), vehicle: saline 88 % of control | dose: 200.0 mg/kg/injection, schedule: Q01DX009 (ip), vehicle: saline 90 % of control | dose: 400.0 mg/kg/injection, schedule: Q01DX009 (ip), vehicle: saline 98 % of control

CN(C)CCCNC(=S)S
inactive: dose: 6.0 mg/kg/injection, schedule: Q01DX009 (ip), vehicle: saline 106 % of control | dose: 12.0 mg/kg/injection, schedule: Q01DX009 (ip), vehicle: saline 100 % of control | dose: 25.0 mg/kg/injection, schedule: Q01DX009 (ip), vehicle: saline 111 % of control

CCC/C=N/Nc1ccnc(SCc2ccccc2)n1
inactive: dose: 75.0 mg/kg/injection, schedule: Q01DX009 (ip), vehicle: DMSO 88 % of control

CC(=O)N(C)N=O
inactive: dose: 10.0 mg/kg/injection, schedule: Q01DX001 (ip), vehicle: saline 115 % of control | dose: 20.0 mg/kg/injection, schedule: Q01DX001 (ip), vehicle: saline 115 % of control | dose: 30.0 mg/kg/injection, schedule: Q01DX001 (ip), vehicle: saline 115 % of control | dose: 40.0 mg/kg/injection, schedule: Q01DX001 (ip), vehicle: saline 114 % of control

c1ccc(-n2nc3c(c2-c2ccc(OCCN4CCCC4)cc2)CCCc2ccccc2-3)cc1
inactive: [10] 88 % of control

CC1OC(n2cnc3c(=S)nc[nH]c32)C(O)C1O (configuration not stated)
inactive: dose: 50.0 mg/kg/injection, schedule: Q01DX001 (ip), vehicle: saline 93 % of control | [11] 96 % of control | [12] 102 % of control | [13] 93 % of control

O=C(Nc1ccc(Cl)c(Cl)c1)Oc1ccc(Cl)cc1C(=O)Nc1ccccc1
inactive: [2] 100 % of control | [14] 100 % of control | [15] 87 % of control

SC1(SC2(S)CCCCC2)CCCCC1
inactive: [10] 97 % of control | [16] 101 % of control | [17] 113 % of control

Cc1ccc(S(=O)(=O)N/N=c2\cc(C)c3ccccc3n2C)cc1
inactive: dose: 100.0 mg/kg/injection, schedule: Q04DX003 (ip), vehicle: gum acacia 95 % of control | dose: 200.0 mg/kg/injection, schedule: Q04DX003 (ip), vehicle: gum acacia 94 % of control | dose: 400.0 mg/kg/injection, schedule: Q04DX003 (ip), vehicle: gum acacia 93 % of control

CN(C)/N=C/c1ccc(N(C)C)cc1
inactive: [18] 100 % of control | dose: 25.0 mg/kg/injection, schedule: Q04DX003 (ip), vehicle: Klucel (hydroxypropylcellulose) (HPC) 101 % of control | [19] 112 % of control | [1] 96 % of control | [4] 111 % of control

O=NN(CCCl)C(=O)N1CCN(C(=O)N(CCCl)N=O)CC1
inactive: dose: 12.5 mg/kg/injection, schedule: Q01DX001 (ip), vehicle: carboxymethylcellulose (CMC) 112 % of control | dose: 25.0 mg/kg/injection, schedule: Q01DX001 (ip), vehicle: carboxymethylcellulose (CMC) 116 % of control | [8] 95 % of control | dose: 300.0 mg/kg/injection, schedule: Q01DX001 (ip), vehicle: carboxymethylcellulose (CMC) 90 % of control | [9] 87 % of control

Nc1[nH]cnc(=S)c1NC=O
inactive: dose: 100.0 mg/kg/injection, schedule: Q01DX001 (ip), vehicle: acetone 92 % of control | dose: 200.0 mg/kg/injection, schedule: Q01DX001 (ip), vehicle: acetone 92 % of control | dose: 400.0 mg/kg/injection, schedule: Q01DX001 (ip), vehicle: acetone 88 % of control

ClCCOCCOc1ccccc1
inactive: [10] 96 % of control | [16] 100 % of control | [17] 101 % of control

CCSCC1OC(n2cnc3c(N)ncnc32)CC1SCC (configuration not stated)
inactive: dose: 50.0 mg/kg/injection, schedule: Q01DX001 (ip), vehicle: carboxymethylcellulose (CMC) 104 % of control | [7] 104 % of control | [11] 98 % of control | [8] 111 % of control | [12] 89 % of control | [9] 101 % of control | [13] 92 % of control

CC(C)N=Cc1cc(I)cc(I)c1O.CC(C)N=Cc1cc(I)cc(I)c1O.[Co]
inactive: [20] 88 % of control | [21] 94 % of control | [22] 102 % of control

c1ccc2c(c1)ccc1ccccc12
inactive: [10] 100 % of control | [16] 92 % of control | [17] 92 % of control

Cc1ccc(Cl)cc1NC(=O)Oc1ccccc1C(=O)OCc1ccccc1
inactive: [3] 97 % of control | [23] 100 % of control | [24] 94 % of control

CCOC(=O)C(O)c1ccccc1 (configuration not stated)
inactive: [10] 98 % of control | [16] 98 % of control | [17] 98 % of control

Cc1cc2c(cc1C)NC(=O)C(C)CN2 (configuration not stated)
inactive: [2] 103 % of control | [4] 98 % of control | [14] 108 % of control | [5] 103 % of control | [15] 95 % of control | [6] 101 % of control

O=C(O)C(F)(F)C(F)(Cl)C(F)(F)C(F)(Cl)C(F)(F)C(F)(Cl)C(F)(F)Cl (configuration not stated) (tested in a mixture with another compound)
inactive: [20] 90 % of control | [21] 101 % of control | [22] 101 % of control

C=C(C)CCC1C(=O)N(c2ccccc2)N(c2ccccc2)C1=O
inactive: [18] 103 % of control | [19] 95 % of control | [2] 100 % of control

Cc1ccc(C)c(N=Nc2ccc(O)cc2)c1
inactive: [3] 94 % of control | [23] 93 % of control

C/C(=C/c1c(Br)cc(Br)c(N)c1Br)C(=O)O
inactive: [20] 100 % of control | [21] 102 % of control | [22] 102 % of control

O=[N+]([O-])c1cccc(C=Nc2ccccc2Cl)c1
inactive: dose: 100.0 mg/kg/injection, schedule: Q01DX001 (ip), vehicle: Klucel (hydroxypropylcellulose) (HPC) 101 % of control and 103 % of control | dose: 200.0 mg/kg/injection, schedule: Q01DX001 (ip), vehicle: Klucel (hydroxypropylcellulose) (HPC) 101 % of control | dose: 400.0 mg/kg/injection, schedule: Q01DX001 (ip), vehicle: Klucel (hydroxypropylcellulose) (HPC) 101 % of control and 103 % of control

C/C(=N\NS(=O)(=O)c1ccc(C)cc1)C1CCSC1 (configuration not stated)
inactive: [3] 93 % of control | [10] 111 % of control | [23] 101 % of control | [16] 98 % of control | [24] 90 % of control | [17] 96 % of control
